# Experimental data from ChEMBL document CHEMBL1156532, “Model structure of the Na+/H+ exchanger 1 (NHE1): functional and clinical implications” (J Biol Chem, 2007).
# pIC50: −log10 of the molar value.
# Experiments:
# [1] = target: Na(+)/H(+) antiporter NhaA (Escherichia coli K-12, UniProt P13738, W62C); test: Antiporter activity in Escherichia coli K12 wild type EcNhaA W62C mutant assessed as effect on sodium chloride-induced pH changes by acridine orange fluorescence assay
# [2] = Antiporter activity in Escherichia coli K12 wild type EcNhaA G76C mutant assessed as effect on lithium chloride-induced pH changes by acridine orange fluorescence assay
# [3] = target: Na(+)/H(+) antiporter NhaA (Escherichia coli K-12, UniProt P13738, H225Q); test: Antiporter activity in Escherichia coli K12 wild type EcNhaA H225Q mutant assessed as effect on sodium chloride-induced pH changes by acridine orange fluorescence assay
# [4] = target: T1, Na(+)/H(+) antiporter NhaA (Escherichia coli K-12, UniProt P13738); test: Antiporter activity in Escherichia coli K12 wild type EcNhaA assessed as effect on lithium chloride-induced pH changes by acridine orange fluorescence assay
# T1 sequence (P13738 whole entry): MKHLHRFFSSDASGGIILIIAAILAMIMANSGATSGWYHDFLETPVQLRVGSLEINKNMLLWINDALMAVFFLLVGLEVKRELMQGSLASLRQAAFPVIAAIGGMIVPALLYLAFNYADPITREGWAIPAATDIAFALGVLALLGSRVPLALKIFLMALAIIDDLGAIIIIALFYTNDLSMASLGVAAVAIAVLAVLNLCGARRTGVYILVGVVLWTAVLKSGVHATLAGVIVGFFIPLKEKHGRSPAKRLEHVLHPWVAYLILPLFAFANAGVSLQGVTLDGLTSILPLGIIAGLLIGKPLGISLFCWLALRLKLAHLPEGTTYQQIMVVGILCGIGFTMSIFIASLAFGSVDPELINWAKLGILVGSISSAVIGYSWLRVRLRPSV
# [5] = Antiporter activity in Escherichia coli K12 wild type EcNhaA F72C mutant assessed as effect on sodium chloride-induced pH changes by acridine orange fluorescence assay
# [6] = target: T2, Na(+)/H(+) antiporter NhaA (Escherichia coli K-12, UniProt P13738, H225R); test: Antiporter activity in Escherichia coli K12 wild type EcNhaA H225R mutant assessed as effect on sodium chloride-induced pH changes by acridine orange fluorescence assay
# [7] = Antiporter activity in Escherichia coli K12 wild type EcNhaA F72C mutant assessed as effect on lithium chloride-induced pH changes by acridine orange fluorescence assay
# [8] = target: T2, Na(+)/H(+) antiporter NhaA; test: Antiporter activity in Escherichia coli K12 wild type EcNhaA H225R mutant assessed as effect on lithium chloride-induced pH changes by acridine orange fluorescence assay
# [9] = Antiporter activity in Escherichia coli K12 wild type EcNhaA W62C mutant assessed as effect on lithium chloride-induced pH changes by acridine orange fluorescence assay
# [10] = Antiporter activity in Escherichia coli K12 wild type EcNhaA N64C mutant assessed as effect on sodium chloride-induced pH changes by acridine orange fluorescence assay
# [11] = Antiporter activity in Escherichia coli K12 wild type EcNhaA H225Q mutant assessed as effect on lithium chloride-induced pH changes by acridine orange fluorescence assay
# [12] = Antiporter activity in Escherichia coli K12 wild type EcNhaA F71C mutant assessed as effect on sodium chloride-induced pH changes by acridine orange fluorescence assay
# [13] = target: T1, Na(+)/H(+) antiporter NhaA; test: Antiporter activity in Escherichia coli K12 wild type EcNhaA assessed as effect on sodium chloride-induced pH changes by acridine orange fluorescence assay
# [14] = target: Na(+)/H(+) antiporter NhaA (Escherichia coli K-12, UniProt P13738, F71C); test: Antiporter activity in Escherichia coli K12 wild type EcNhaA F71C mutant assessed as effect on lithium chloride-induced pH changes by acridine orange fluorescence assay
# [15] = Antiporter activity in Escherichia coli K12 wild type EcNhaA N64C mutant assessed as effect on lithium chloride-induced pH changes by acridine orange fluorescence assay
# [16] = Antiporter activity in Escherichia coli K12 wild type EcNhaA G76C mutant assessed as effect on sodium chloride-induced pH changes by acridine orange fluorescence assay
# T2 sequence (P13738 whole entry H225R): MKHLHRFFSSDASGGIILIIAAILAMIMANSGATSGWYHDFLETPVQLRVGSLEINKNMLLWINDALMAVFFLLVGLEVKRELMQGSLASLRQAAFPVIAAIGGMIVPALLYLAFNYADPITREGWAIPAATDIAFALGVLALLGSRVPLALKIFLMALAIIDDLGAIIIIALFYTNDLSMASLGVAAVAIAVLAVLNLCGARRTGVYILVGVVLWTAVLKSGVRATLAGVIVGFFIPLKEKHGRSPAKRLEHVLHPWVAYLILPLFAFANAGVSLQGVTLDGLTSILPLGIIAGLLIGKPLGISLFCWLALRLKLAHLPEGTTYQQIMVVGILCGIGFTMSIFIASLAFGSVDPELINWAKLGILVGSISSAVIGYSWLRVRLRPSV
# Chain of Na(+)/H(+) antiporter NhaA (Escherichia coli K-12, UniProt P13738, H225Q) (P13738 whole entry H225Q): as the sequence (P13738 whole entry H225R) above, with R225Q counted along it
# Chain of Na(+)/H(+) antiporter NhaA (Escherichia coli K-12, UniProt P13738, F71C) (P13738 whole entry F71C): as the sequence (P13738 whole entry H225R) above, with F71C, R225H counted along it
# Chain of Na(+)/H(+) antiporter NhaA (Escherichia coli K-12, UniProt P13738, W62C) (P13738 whole entry W62C): as the sequence (P13738 whole entry H225R) above, with W62C, R225H counted along it
smiles,measurement,setting,value
NC1=Nc2cccc3cccc(c23)N1,pIC50,[1],5.92
same,pIC50,[2],5.92
same,pIC50,[3],6.10
same,pIC50,[4],5.66
same,pIC50,[5],5.74
same,pIC50,[6],6.00
same,pIC50,[7],5.59
same,pIC50,[8],5.64
same,pIC50,[9],5.82
same,pIC50,[10],6.30
same,pIC50,[11],5.11
same,pIC50,[12],6.52
same,pIC50,[13],5.77
same,pIC50,[14],6.10
same,pIC50,[15],4.77
same,pIC50,[16],5.80
